Data published in US20150359884A1, “MULTI-PHOTON ISOMERISATION OF COMBRETASTATINS AND THEIR USE IN THERAPY” (priority 2011, published 2015).

Legend:
HeLa cells = experiment: Fluorescence lifetime imaging (FLIM) of uptake and intracellular concentration in HeLa cells
Protocol: Both HeLa and Chinese hamster ovary (CHO) cells were obtained from the European Collection of Cell Cultures. HeLa cells were cultured in MEM medium (Gibco) containing 10% foetal calf serum, penicillin (100 units/mL), streptomycin (100 μg/mL) and glutamine (2 mM). CHO cells were cultured in DMEM (Gibco) with the same additions as for the HeLa cells. For microscopy the adherent cell cultures were grown in 35 mm diameter glass-bottom culture dishes with optical quality glass (MatTek Corporation) and incubated at 37° C. in a humidified atmosphere containing 5% CO2. Human umbilical vein endothelial cells (HUVECs) were obtained from TCS Cellworks. HUVECs were sub-cultured in basal medium (TCS Cellworks) supplemented with antibiotic supplement/amphotericin-B, following the detailed guidelines provided by TCS Cellworks.
The fluorescence lifetime imaging system with multiphoton excitation employed lasers for multiphoton excitation consisting of a Ti:Sapphire laser, tuneable between 700 and 1000 nm and providing ca 180 fs pulses at 76 MHz, and an optical parametric oscillator (OPO) pumped by a second Ti:Sapphire laser source. Using the doubled idler output of the OPO, useful energies (>200 mW) could be obtained between 550 and 640 nm. Samples were excited on the stage of Nikon TE2000U inverted microscope using a water immersion ×60 objective of NA 1.2. Using the various microscope ports it was possible to record the fluorescence in a number of ways. The fluorescence signal at one port was relayed to a spectrometer (Acton 275) and CCD setup (Andor iDUS) so that emission spectra and intensities could be recorded. Alternatively the fluorescence signal could be routed via a second port to a time-correlated single photon counting (TCSPC) system (Becker and Hickl SPC-830) allowing fluorescence lifetime measurements and fluorescence lifetime imaging (FLIM), using Becker and Hickl software (SPCImage) for analysis. In FLIM mode the fluorescence was isolated by a suitable narrowband interference filter (400IU25 together with BG3 (Comar)). […] Two photon cross sections were determined using a reference fluorophore as a two photon standard as described by Mathai et al., employing published values of the two-photon cross section for 9-chloroanthracene.
Images of intracellular distribution of E-combretastatins in cell monolayers were obtained using fluorescence lifetime imaging, in which the rastered excitation laser beam dwells on each pixel for a few milliseconds and at each position records a nanosecond fluorescence lifetime decay curve using the time-correlated single photon counting method. […]
Quantification of fluorophore concentration from intensity measurements is often difficult.

[1] = Fluorescence lifetimes in solvents, two-photon excitation with TCSPC; format: physicochemical
Protocol: Fluorescence lifetimes were determined using 2PE at 630 nm with the microscope TCSPC setup (overall time response of 25 ps fwhm) and produced the results shown in Table 1. […] Characterisation of the spectroscopic properties of these latter two compounds remains to be investigated further. […] In the very viscous environment provided by glycerol the lifetime increases further to 1180 ps. In the range of alkanols studied the lifetime is closely correlated with solvent viscosity as shown in the inset to FIG. 3. […] However it is clear that the measured lifetime has the potential to report on cellular environments in FLIM studies. For E-CA4F similar trends are observed, but the overall differences in both lifetimes and quantum yields over the range of solvents are rather less than for E-CA4. The fluorescence lifetimes of E-CA4F are confined to a narrower range having values ranging from 440 ps in methanol through 740 ps in hexane to 1070 ps in glycerol. The more pronounced solvent dependence for E-CA4 no doubt reflects the more polar nature of the molecule compared with E-CA4F. The relative polarities may be judged from the partition coefficients (P) calculated according to the method of Brown et al..

[2] = Two-photon absorption cross section using reference fluorophore 9-chloroanthracene; format: physicochemical; conditions: at 620 nm, DCM
Description: (§1) Cell images were overlaid using Adobe Photoshop CS3.
Published cross sections for two photon absorption (σ2, the probability of an absorption process or photon interaction) typically show large variations depending on the method of measurement, using either the Z-scan method or a reference fluorophore, and the power range and pulse duration of the laser used for excitation. We have attempted to determine values of σ2 for E-CA4 and E-ACA4 using a reference fluorophore. 9-Chloroanthracene (9CIA) was selected as a standard fluorophore with an appropriate fluorescence spectrum and for which 2PE cross-sections are available. The values of σ2 at 620 nm for E-CA4 and E-CA4F in DCM were determined to be 2.1±0.5 and 2.75±0.6 GM units respectively. […] Values of σ2 at 620 nm for E-ACA and E-DMAC were both 5.7±1.2. These larger values may be consistent with some charge transfer character of the excitation of these compounds.

[3] = Fluorescence quantum yields in solvents, UV one-photon excitation; format: physicochemical; conditions: 20° C., 290-300 nm excitation
Protocol: Absorption spectra were measured in either a Perkin Elmer Lambda 25 or 950 spectrophotometer. Fluorescence measurements were made with either a Spex Fluoromax or Varian Cary Eclipse spectrofluorimeter using the spectral correction curves supplied by the manufacturers. Fluorescence quantum yields with UV (one-photon) excitation were determined using either 2-aminopyridine (Φref 0.6 [7]) or 9-chloroanthracene (Φref 0.50 in dichloromethane, determined here relative to 9,10-diphenylanthracene in cyclohexane (Φref 0.97) and anthracene in ethanol (Φref 0.28 [8]) as standards. Fluorescence quantum yields were determined from the relative slopes of plots of integrated fluorescence intensity versus (1-10^−A) for samples having absorbance A≦0.1. The square of the refractive index (n^2) correction was applied when sample and reference compounds were in different solvents. Irradiation of the samples was minimized by the use of narrow excitation slits to reduce simultaneous photoisomerization.
The fluorescence quantum yields for E-CA4F were generally somewhat higher than for E-CA4.

[4] = system: human umbilical vein endothelial cells (HUVECs); experiment: Fluorescence lifetime imaging (FLIM) of uptake and intracellular concentration in HUVECs; format: cell-based
Description: as §1
Z-CA4 and analogues exert their anticancer activity by preventing the process of angiogenesis in which a growing tumour is supplied with new vasculature for the supply of nutrients via the bloodstream. We have therefore studied interactions between combretastatins and cultured HUVECs. […] Nevertheless it was possible to obtain images of cells after uptake upon E-combretastatin addition to the supporting medium at relatively low concentrations. […] In addition there are some punctate structures apparent in the images that appear to correlate with lipid droplets identified by Nile Red staining of the same cell. At 37° C. exact co-localization of the sequential images of combretastatin fluorescence and Nile Red labelled lipid droplets, obtained using the two different imaging systems attached to the microscope, is not possible because of the Brownian motion and the occasional rapid saltation of these structures that occur as a result of their transport upon the cellular microtubule network. The fluorescence lifetime distribution of intracellular E-CA4F observed in this cell simultaneously labelled with Nile Red peaks at ˜950 ps. […] This confirms that Nile Red and E-CA4F exist in the same space and are able to come close enough to allow FRET. The long lifetime of E-CA4F fluorescence in the HUVEC cell indicates a viscous environment for E-CA4F within the cell which is consistent with a lipidic location such as a membrane or lipid droplet. Since the fluorescence lifetimes and quantum yields of E-CA4F are directly related, it is possible to combine the FI and lifetime images to calculate the concentration distribution, using a series of standard solutions (DMSO was the chosen solvent with τ 810 ps). […] It is therefore clear that E-CA4F (and other compounds in FIG. 10) are taken up by their target endothelial cell and accumulated by up to 200 times the extracellular concentration of the compound. Similar images have been obtained that show corresponding uptake of E-CA4F within HUVECs from solutions containing as little as 1 μM E-CA4F.

[5] = DMSO, 20° C., two-photon excitation 620-630 nm
[6] = DCM, 20° C., two-photon excitation 620-630 nm, ne = non-exponential
[7] = EtOH, 20° C., two-photon excitation 620-630 nm, ne = non-exponential
[8] = Ethylene glycol, 20° C., two-photon excitation 620-630 nm, ne = non-exponential
[9] = Hexane, 20° C., two-photon excitation 620-630 nm
[10] = MeCN, 20° C., two-photon excitation 620-630 nm, ne = non-exponential
[11] = MeOH, 20° C., two-photon excitation 620-630 nm, ne = non-exponential
[12] = HUVEC, 5 μM in medium, 37° C., 60 min

Structure (SMILES)	Fluorescence lifetime τ [1, 5] [ns]	Two photon absorption cross section σ2 [2] [GM units]	Fluorescence lifetime τ [1, 6]	Fluorescence lifetime τ [1, 7]	Fluorescence lifetime τ [1, 8]	Fluorescence lifetime τ [1, 9] [ns]	Fluorescence lifetime τ [1, 10]	Fluorescence lifetime τ [1, 11]	Fluorescence quantum yield φ ([3]; DCM)	further results
COc1cc(C=Cc2ccc(C#N)cc2)cc(OC)c1OC [E-CNCA4, 4-[2-(3,4,5-trimethoxyphenyl)vinyl]benzonitrile]	0.71									Intracellular distribution (HeLa cells): accumulates mainly within the cell cytoplasm and is excluded from the cell nucleus
COc1cc(/C=C/c2ccc(N(C)C)cc2)cc(OC)c1OC [E-DMAC, (E)-1-(3′,4′,5′-Trimethoxyphenyl)-2-(4″-dimethylamino-phenyl)ethene]	0.36	5.7±1.2	ne	ne	ne	0.41	ne	ne	0.11	
COc1ccc(/C=C/c2cc(OC)c(OC)c(OC)c2)cc1F [E-CA4F, (E)-1-(3′,4′,5′-trimethoxyphenyl)-2-(3″-fluoro-4″-methoxyphenyl)ethene]	0.81	2.75±0.6	0.61 ns	0.48 ns	0.76 ns	0.75	0.59 ns	0.44 ns	0.23	Accumulation relative to the extracellular concentration ([4]; HUVEC endothelial cells): up to 200 times; Intracellular concentration in many parts of the cell [4, 12]: 500 µM; Intracellular concentration in the lipid droplets, peak [4, 12]: over 1 mM; Intracellular concentration as times that added to the surrounding medium ([4]; HUVEC, 5 μM in medium, many parts of the cell): 100 times; Intracellular distribution ([4]; HUVEC, 5 μM, 37° C., 60 min): taken up into the cytoplasmic region of the cell, but excluded from the cell nucleus; Fluorescence lifetime τ ([1]; DMSO standard solutions): 810 ps; Fluorescence lifetime τ ([1]; Glycerol, 20° C., two-photon excitation 620-630 nm, ne = non-exponential): 1.07 ns; Fluorescence lifetime ([1]; glycerol): 1070 ps; Fluorescence lifetime ([1]; hexane): 740 ps; Fluorescence lifetime ([1]; methanol): 440 ps; Fluorescence quantum yield φ ([3]; DMSO): 0.29; Fluorescence quantum yield φ ([3]; EtOH): 0.17; Fluorescence quantum yield φ ([3]; Ethylene glycol): 0.29; Fluorescence quantum yield φ ([3]; Glycerol): 0.42; Fluorescence quantum yield φ ([3]; Hexane): 0.31; Fluorescence quantum yield φ ([3]; MeCN): 0.2; Fluorescence quantum yield φ ([3]; MeOH): 0.15
